Eight compounds from PubChem BioAssay (NCI) can be followed below.

Test systems include SW-620 colon; EKVX NSCLC; HCC-2998 colon; A498 renal; MDA-MB-435; SF-539 CNS; KM12 colon; BT-549 breast; DU-145 prostate; HT29 colon.
Holding throughout (assay): NCI tumour cell line growth inhibition, 48 h

Molecules are shown by their SMILES.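 These data come from cells grown in 96-well plates and exposed to compound for 48 hours at five concentrations. GI50 marks 50% less growth. TGI is the concentration that stops growth completely.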

Turning to `COC(=O)[C@@H](C)C[C@H](Cc1ccccc1)NC(=O)c1nc([C@@H](C[C@H](C(C)C)N(C)C(=O)[C@@H](NC(=O)[C@H]2CCCCN2C)C(C)C)OC(C)=O)sc1C`, the GI50 was less than 0.00167 µM in the experiment with SW-620 colon; 0.00666 µM in the experiment with EKVX NSCLC; less than 0.00167 µM in the experiment with HCC-2998 colon; less than 0.00167 µM in the experiment on A498 renal; less than 1.67 nM in the experiment with MDA-MB-435; 0.00239 µM with SF-539 CNS. Also, the GI50 with KM12 colon is less than 1.67 nM; in the experiment on BT-549 breast it was less than 0.00167 µM; with DU-145 prostate, less than 0.00167 µM; in the experiment on HT29 colon it was less than 0.00167 µM. The TGI is greater than 16.7 µM in the experiment on SW-620 colon; greater than 16.7 µM in the experiment with EKVX NSCLC; greater than 16.7 µM with HCC-2998 colon; greater than 3.99 µM in the experiment with A498 renal; less than 0.00167 µM in the experiment on MDA-MB-435; 0.00822 µM in the experiment on SF-539 CNS. Further, the TGI was greater than 16.7 µM in the experiment with KM12 colon, 0.0568 µM with BT-549 breast, greater than 16.7 µM in the experiment on DU-145 prostate and 0.088 µM in the experiment on HT29 colon.
As for `N#Cc1cnc2cc(OC[C@H](O)CO)c(NC(=O)CC3CSSC3)cc2c1Nc1ccc(OCc2cccc(F)c2)c(Cl)c1`, the GI50 is 0.698 µM in the experiment on SW-620 colon; 0.696 µM with EKVX NSCLC; 0.796 µM in the experiment on HCC-2998 colon; 1.03 µM in the experiment with A498 renal; 272 nM in the experiment on MDA-MB-435; 0.791 µM with SF-539 CNS. Further, the GI50 was 155 nM in the experiment on KM12 colon, 0.133 µM in the experiment on BT-549 breast, 0.637 µM in the experiment with DU-145 prostate and 0.221 µM with HT29 colon. Also, the TGI in the experiment with SW-620 colon is 1.58 µM; in the experiment with EKVX NSCLC, 1.67 µM; in the experiment on HCC-2998 colon, 1.55 µM; in the experiment on A498 renal it was 2.45 µM; with MDA-MB-435 it was 0.878 µM; in the experiment with SF-539 CNS, 1.55 µM. In addition, the TGI with KM12 colon was 0.45 µM; with BT-549 breast, 0.43 µM; in the experiment on DU-145 prostate, 1.36 µM; with HT29 colon, 0.836 µM.
Turning to `C[C@@H](C(=O)Nc1ccc(Cl)cc1)C1CCC(c2ccnc3ccc(F)cc23)CC1` (stereo not given in full), the GI50 in the experiment on SW-620 colon was 19 µM; in the experiment on EKVX NSCLC, 4.54 µM; with HCC-2998 colon, 4.35 µM; with A498 renal it was 6.27 µM; with MDA-MB-435, 9080 nM; with SF-539 CNS it was 11.8 µM. The GI50 in the experiment with KM12 colon is 6010 nM; in the experiment on BT-549 breast, 3.72 µM; in the experiment on DU-145 prostate, 12.6 µM; with HT29 colon it was 5.81 µM. The TGI with SW-620 colon was greater than 100 µM; in the experiment on EKVX NSCLC it was 61.6 µM; in the experiment on HCC-2998 colon, 24.3 µM; with A498 renal, 56.8 µM; in the experiment with MDA-MB-435, 54.9 µM; in the experiment with SF-539 CNS it was 47.7 µM. Further, the TGI is 34.9 µM with KM12 colon, 22.8 µM with BT-549 breast, greater than 100 µM with DU-145 prostate and 40.4 µM in the experiment on HT29 colon.
In the case of `O=C(c1ccccc1)C1N=NCC1c1ccc([N+](=O)[O-])cc1` (stereo not given), the TGI in the experiment on SW-620 colon, with EKVX NSCLC, with HCC-2998 colon, with A498 renal, in the experiment with MDA-MB-435 and with SF-539 CNS was greater than 100 µM in each case. The TGI with KM12 colon was greater than 100 µM; in the experiment with BT-549 breast, 65.8 µM; in the experiment on DU-145 prostate, greater than 100 µM; in the experiment on HT29 colon it was greater than 100 µM.
As to `Cc1occc1C(=S)Nc1ccc(Cl)c(COC(C)(C)C)c1`, the TGI in the experiment with SW-620 colon stood at 33.5 µM; with EKVX NSCLC, 37.1 µM; in the experiment with HCC-2998 colon, 32.2 µM; in the experiment with A498 renal it was 32.3 µM; in the experiment on MDA-MB-435, 30.7 µM; in the experiment on SF-539 CNS it was 31.1 µM. Besides, the TGI amounted to 31.7 µM in the experiment with KM12 colon, 33.6 µM with BT-549 breast, 46.9 µM in the experiment on DU-145 prostate and 29.6 µM in the experiment on HT29 colon.
For `CCN(CC)S(=O)(=O)c1ccc(OC)c(Nc2ncc(-c3ccccc3)o2)c1`, the GI50 is greater than 23.7 µM in the experiment with SW-620 colon; greater than 25 µM in the experiment with EKVX NSCLC; greater than 25 µM in the experiment on HCC-2998 colon; 1.24 µM in the experiment on A498 renal; greater than 25000 nM in the experiment on MDA-MB-435; greater than 17.3 µM in the experiment with SF-539 CNS. The GI50 in the experiment on KM12 colon is 845 nM; in the experiment on BT-549 breast, greater than 18.4 µM; with DU-145 prostate, greater than 25 µM; in the experiment with HT29 colon, greater than 17.6 µM. Further, the TGI in the experiment with SW-620 colon is greater than 25 µM; with EKVX NSCLC, greater than 25 µM; with HCC-2998 colon, greater than 25 µM; with A498 renal, greater than 15.5 µM; with MDA-MB-435 it was greater than 25 µM; in the experiment on SF-539 CNS, greater than 25 µM. In addition, the TGI in the experiment with KM12 colon, in the experiment with BT-549 breast, in the experiment on DU-145 prostate and in the experiment with HT29 colon was greater than 25 µM in each case.
Turning to `COC(=O)/C=C/C=C(c1ccccc1)c1ccccc1`, the GI50 in the experiment with SW-620 colon is 3.03 µM; in the experiment with EKVX NSCLC, 4.06 µM; in the experiment on HCC-2998 colon it was 28.8 µM; in the experiment with A498 renal it was 10.6 µM; with MDA-MB-435, 1630 nM; with SF-539 CNS, 5.17 µM. In addition, the GI50 in the experiment with KM12 colon was 3670 nM; with BT-549 breast it was 3.4 µM; with DU-145 prostate it was 5.48 µM; with HT29 colon, 3.85 µM. The TGI in the experiment with SW-620 colon was greater than 100 µM; in the experiment with EKVX NSCLC, 32.8 µM; in the experiment on HCC-2998 colon, greater than 100 µM; in the experiment with A498 renal it was 39.6 µM; in the experiment on MDA-MB-435 it was 4.37 µM; in the experiment on SF-539 CNS it was 43.3 µM. Moreover, the TGI in the experiment with KM12 colon is 27.4 µM; in the experiment on BT-549 breast it was 19.6 µM; in the experiment on DU-145 prostate, 52.8 µM; with HT29 colon, greater than 100 µM.
Take `CNC(=O)c1cncc(/C=C/c2ccccc2C)c1`: the GI50 is greater than 25 µM in the experiment with SW-620 colon; greater than 25 µM in the experiment with EKVX NSCLC; greater than 25 µM in the experiment on HCC-2998 colon; 17.4 µM in the experiment on A498 renal; greater than 25000 nM in the experiment with MDA-MB-435; greater than 25 µM with SF-539 CNS. In addition, the GI50 in the experiment on KM12 colon was greater than 25000 nM; in the experiment on BT-549 breast it was greater than 25 µM; in the experiment with DU-145 prostate, greater than 25 µM; with HT29 colon it was greater than 25 µM. Besides, the TGI with SW-620 colon, in the experiment with EKVX NSCLC, with HCC-2998 colon, with A498 renal, in the experiment on MDA-MB-435 and with SF-539 CNS was greater than 25 µM each time. In addition, the TGI in the experiment with KM12 colon, with BT-549 breast, in the experiment with DU-145 prostate and with HT29 colon was greater than 25 µM throughout.
